{"source": "paper PMC10534724", "about": "“Interaction of ALK Inhibitors with Polyspecific Organic Cation Transporters and the Impact of Substrate-Dependent Inhibition on the Prediction of Drug–Drug Interactions” (Pharmaceutics, 2023)", "biological_target": "T1, hMATE2-K (Homo sapiens, UniProt Q86VL8)", "T1 construct": "expressed in transfected cells", "T1 sequence (Q86VL8 1-566 isoform Q86VL8-3)": "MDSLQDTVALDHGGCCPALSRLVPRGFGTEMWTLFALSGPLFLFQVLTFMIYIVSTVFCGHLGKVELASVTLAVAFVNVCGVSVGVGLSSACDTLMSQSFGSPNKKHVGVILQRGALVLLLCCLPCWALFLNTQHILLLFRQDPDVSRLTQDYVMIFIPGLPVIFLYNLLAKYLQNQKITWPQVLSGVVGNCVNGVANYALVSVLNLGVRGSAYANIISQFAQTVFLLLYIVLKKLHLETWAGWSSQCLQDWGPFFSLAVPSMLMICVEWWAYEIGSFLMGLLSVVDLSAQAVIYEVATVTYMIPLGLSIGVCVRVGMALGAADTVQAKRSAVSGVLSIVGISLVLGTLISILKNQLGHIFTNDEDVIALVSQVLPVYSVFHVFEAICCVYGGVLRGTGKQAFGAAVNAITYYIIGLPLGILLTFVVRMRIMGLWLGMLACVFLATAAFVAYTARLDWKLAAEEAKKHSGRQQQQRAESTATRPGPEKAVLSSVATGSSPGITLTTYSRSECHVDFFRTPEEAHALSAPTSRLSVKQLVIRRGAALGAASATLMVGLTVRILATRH", "test": "Inhibition of hMATE2-K-mediated substrate uptake in transfected HEK293 cells (pH 8.0)", "type": "in vitro ADME", "details": "for IC50: HEK293, 2 min, 37 °C, mean ± SD; for In vivo DDI study recommendation, hMATE2-K: FDA-recommended criteria", "note": "Read-outs that look alike come from different tables or passages of the source.", "data": [{"smiles": "COc1cc(N2CCC(N3CCN(C)CC3)CC2)ccc1Nc1ncc(Cl)c(Nc2ccccc2P(C)(C)=O)n1", "note": "[Brigatinib]", "values": [{"measurement": "substrate dependency, hMATE2-K: more potent with metformin than with mIBG", "setting": "IC50 ratio mIBG/metformin", "result": "approximately 4 fold"}, {"measurement": "IC50", "setting": "substrate 1 µM [3H]MPP+, read-out: IC50, hMATE2-K-mediated MPP+ uptake", "result": "> 300", "unit": "µM"}, {"measurement": "IC50", "setting": "substrate 8.9 µM [14C]metformin, read-out: IC50, hMATE2-K-mediated metformin uptake", "result": "38.3 ± 1.7", "unit": "µM"}, {"measurement": "In vivo DDI study recommendation, hMATE2-K", "setting": "substrate MPP+", "result": "No"}, {"measurement": "In vivo DDI study recommendation, hMATE2-K", "setting": "substrate mIBG", "result": "No"}, {"measurement": "In vivo DDI study recommendation, hMATE2-K", "setting": "substrate metformin", "result": "No"}]}]}
